Laboratory results: patent US20140121216A1, “INDOLEAMINE DERIVATIVES FOR THE TREATMENT OF CENTRAL NERVOUS SYSTEM DISEASES” (Adamed Sp. z o.o., priority 2011, published 2014)

Legend:
[1] = system: Male CD-1 mice; test: Dizocilpine-induced locomotor hyperactivity in mice; format: in vivo
Experimental: Potential antipsychotic activity was tested for the representative compound 24 in mouse model of psychosis, involving the induction of locomotor hyperactivity by administering psychotomimetic substance-dizocilpine. The ability of a test compound to remove this effect is a measure of potential antipsychotic activity.
Male CD-1 mice were group-housed for 2-3 day period in polycarbonate Makrolon type 3 cages (dimensions 26.5×15×42 cm) in an environmentally controlled, experimental room (ambient temperature 22-20° C.; relative humidity 50-60%; 12:12 light:dark cycle, lights on at 8:00), in groups of 15. Standard laboratory food (Ssniff M-Z) and filtered water were freely available. On the day before experiments the equipment produced “white noise” was turned on for 30 minutes and mice were weighted exact to 1 g. Animals were assigned randomly to treatment groups. All the experiments were performed by two observers unaware of the treatment applied between 9:00 and 14:00 on separate groups of animals. […]
The locomotor activity was recorded with an Opto M3 multi-channel activity monitor (MultiDevice Software v.1.3, Columbus Instruments). The mice were individually placed in plastic cages (22×12×13 cm) for 30 minutes habituation period, and then the crossings of each channel (ambulation) were counted during 1 h with data recording every 5 minutes. […]

[2] = system: male Wistar rats; test: Reversal of the dizocilpine (MK-801)-induced PPI deficits in rats; format: in vivo
Experimental: Drug-naive male Wistar rats (Charles River, Sulzfeld, Germany) weighing 250-400 g were housed in polycarbonate Makrolon cages (380×200×590 mm) in an environmentally controlled, experimental room (ambient temperature 21-23° C.; relative humidity 50-60%; 12:12 light:dark cycle, lights on at 7:00 a.m.), in groups of 4. Tap water and standard lab chow (Labofeed H, WPIK, Kcynia, Poland) was available ad libitum.
The animals were delivered to the Animal Research Unit of the Department of Pharmacology, Institute of Psychiatry and Neurology, 2 weeks before the start of experimental procedures. During these 2 weeks all the rats were repeatedly getting used to the presence of the experimenter (handling), and to injections of saline.
On the day before experiments rats were weighted exact to 1 g. Animals were assigned randomly to treatment groups. All the experiments were performed on separate groups of animals, between 9:00 and 15:00. […]
The PPI apparatus consisted of eight acoustic startle chambers (SR-LAB, San Diego Instruments, San Diego, Calif., USA). […] Startle responses, reflecting the motion of animals in the cylinder following the acoustic stimulus, were detected by a piezoelectric transducer mounted below the frame. […]
The average inter-trial interval was 22.5 s (range: 15-30 s). […] Startle responses were measured for 100 ms after the onset of the last trial stimulus. […]

O=C1CCc2ccc(OCCCCN3CCN(c4cccc5c4ccn5S(=O)(=O)c4ccccc4)CC3)cc2N1 [Compound 24, 7-(4-(4-(1-(Phenylsulphonyl)-1H-indol-4-yl)piperazin-1-yl)butoxy)-3,4-dihydroquinolin-2(1H)-one]
activity in words, dizocilpine-induced locomotor hyperactivity test [1]: active | MED (minimum effective dose), dizocilpine-induced locomotor hyperactivity ([1]; i.p., 30 minutes before the experiment): 10 mg/kg | activity in words, dizocilpine (MK-801)-induced PPI deficit test [2]: active | MED (minimum effective dose), reversal of dizocilpine (MK-801)-induced PPI deficits ([2]; i.p., 60 min. before the test): 10 mg/kg
